Inhibition data for 46 molecules are collected here from article PMC11855827, “High-Throughput Screening of Five Compound Libraries for Anthelmintic Activity and Toxicity Leads to the Discovery of Two Flavonoid Compounds” (International Journal of Molecular Sciences, 2025).

The test system of the assay is C. elegans. Kind of assay: microbe, parasite or virus in culture. The note with it: Caenorhabditis elegans.
Where [1] appears, read: 0 h, read-out: Percentage of motility inhibition 0 h, Table S2, C. elegans SS assay, 110 μM, 0 h, averages of 4 data points.
Where [2] appears, read: 24 h, read-out: Percentage of motility inhibition 24 h, Table S2, C. elegans SS assay, 110 μM, 24 h, averages of 4 data points.
Setting [3] is: 0 h, read-out: Percentage of motility inhibition 0 h.
Where [4] appears, read: 24 h, read-out: Percentage of motility inhibition 24 h.

Like-named read-outs stand apart in the source and are kept apart here.

For orientation: inhibition means the relative decrease from the control value, in per cent.

Take `C=C1CCC[C@]2(C)CC[C@@H](C(C)(C)O)C[C@@H]12` [Beta-Eudesmol]: the inhibition at 110 µM reads like this: under setting [1], 0%; under setting [2], 6%.
For the molecule `C=C(C)[C@@H]1CC[C@]2(COC(C)=O)CC[C@]3(C)[C@H](CC[C@@H]4[C@@]5(C)CC[C@H](OC(C)=O)C(C)(C)[C@@H]5CC[C@]43C)[C@@H]12` [Betulin diacetate], the inhibition at 110 µM is, setting by setting: under setting [1], 11%; under setting [2], 0%.
In the case of `C=C(C)[C@@H]1CC[C@]2(CO)CC[C@]3(C)[C@H](CC[C@@H]4[C@@]5(C)CC[C@H](O)C(C)(C)[C@@H]5CC[C@]43C)[C@@H]12` [Betulin], the inhibition at 110 µM is 0% under setting [1] and 0% under setting [2].
As to `C=C(C)[C@@H]1CC[C@]2(C(=O)O)CC[C@]3(C)[C@H](CC[C@@H]4[C@@]5(C)CC[C@H](OC(=O)CC(C)(C)C(=O)O)C(C)(C)[C@@H]5CC[C@]43C)[C@@H]12` [Bevirimat], the inhibition at 110 µM reads like this: under setting [1], 3%; under setting [2], 30%.
Take `C[C@@H](O)[C@H]1C(=O)N2C(C(=O)[O-])=C(SC3Cn4cnc[n+]4C3)[C@H](C)[C@H]12` (some centres unmarked) [Biapenem]: the inhibition at 110 µM worked out at 18% under setting [1] and 3% under setting [2].
For `CN1CCc2cc3c(cc2[C@H]1[C@@H]1OC(=O)c2c1ccc1c2OCO1)OCO3` [Bicuculline], in that order: 0% and 8%.
Take `COC(=O)c1cc(OC)c2c(c1-c1c(CO)cc(OC)c3c1OCO3)OCO2` [Bicyclol]: the inhibition at 110 µM reads like this: under setting [1], 23%; under setting [2], 4%.
On to `c1ccc(-c2ccc(C(c3ccccc3)n3ccnc3)cc2)cc1` (centres unmarked) [Bifonazole], for which the inhibition at 110 µM is, setting by setting: under setting [1], 25%; under setting [2], 31%.
In the case of `CC(C)(C)[C@]1(O)CC2OC(=O)CC23C(=O)OC2OC(=O)[C@H](O)C231` (some centres unmarked) [Bilobalide], the inhibition at 110 µM under setting [1] came out at 0% and the inhibition at 110 µM under setting [2] worked out at 23%.
Take `O=C(O)CCCC[C@@H]1SC[C@@H]2NC(=O)N[C@@H]21` [Biotin]: the inhibition at 110 µM was found to be 14% under setting [3] and 12% under setting [4].
For `CC(C)=C/C=C1\O[C@@H]2CC(C)=CC(=O)[C@@H]2[C@]1(C)O` [Bisabolangelone], the inhibition at 110 µM is, setting by setting: under setting [1], 18%; under setting [2], 13%.
On to `Oc1c(Cl)cc(Cl)cc1Sc1cc(Cl)cc(Cl)c1O` [Bithionol], for which the inhibition at 110 µM under setting [1] stood at 40% and the inhibition at 110 µM under setting [2] is 40%.
As for `CC(C)(C)NC(=O)N[C@H](C(=O)N1C[C@H]2[C@@H]([C@H]1C(=O)NC(CC1CCC1)C(=O)C(N)=O)C2(C)C)C(C)(C)C` (some centres unmarked) [Boceprevir], the inhibition at 110 µM reads like this: under setting [1], 28%; under setting [2], 39%.
Take `COc1cc2c(cc1O)C[C@H]1c3c(cc(O)c(OC)c3-2)CCN1C` [Boldine]: the inhibition at 110 µM was 0% under setting [1] and 0% under setting [2].
On to `O=C1N[C@@H](Cc2c[nH]c3ccccc23)C(=O)N2CCC[C@@H]12` [Brevianamide F], for which the inhibition at 110 µM by setting is: under setting [3], 31%; under setting [4], 18%.
For `C/C=C(/C)C(=O)O[C@H]1[C@@H]2[C@H](C)C(=O)O[C@@H]2C[C@@H](C)[C@@H]2C=CC(=O)[C@]21C` [Brevilin A], in that order: 0% and 0%.
The corresponding values for `O=c1[nH]c(=O)n([C@H]2C[C@H](O)[C@@H](CO)O2)cc1/C=C/Br` [Brivudine] are 6% and 14%.
Consider `O=[N+]([O-])C(Br)(CO)CO` [Bronopol], for which the inhibition at 110 µM under setting [1] was 19% and the inhibition at 110 µM under setting [2] is 24%.
The corresponding values for `Cc1ccc2c(Br)cc(Br)c(OC(=O)c3ccccc3)c2n1` [Broxaldine] are 26% and 0%.
For `Oc1c(Br)cc(Br)c2cccnc12` [Broxyquinoline], in that order: 0% and 8%.
The corresponding values for `COC(=O)[C@@]12OC[C@]34[C@H]([C@@H](O)[C@@H]1O)[C@@]1(C)CC(=O)C(O)=C(C)[C@@H]1C[C@H]3OC(=O)[C@H](OC(=O)/C=C(\C)C(C)C)[C@@H]24` [Bruceantin] are 24% and 69%.
Take `COC(=O)[C@@]12OC[C@]34[C@H]([C@@H](O)[C@@H]1O)[C@@]1(C)CC(=O)C(O)=C(C)[C@@H]1C[C@H]3OC(=O)[C@H](OC(=O)CC(C)C)[C@@H]24` [Bruceine A]: the inhibition at 110 µM runs as follows: under setting [3], 24%; under setting [4], 49%.
`C[C@H](CC[C@@H](O)C(C)(C)O)[C@H]1CC[C@@]2(C)[C@@H]3CC=C4[C@@H](CC[C@H](O)C4(C)C)[C@]3(C)C(=O)C[C@]12C` [Bryodulcosigenin]: the inhibition at 110 µM runs as follows: under setting [1], 16%; under setting [2], 15%.
The corresponding values for `CC(C)(C)[C@H]1CC[C@H](CC2=C(O)C(=O)c3ccccc3C2=O)CC1` [Buparvaquone] are 6% and 12%.
Take `CO[C@H]1C(=O)[C@]2(C)[C@@H](OC)C[C@H]3OC[C@@]3(OC(C)=O)[C@H]2[C@H](OC(=O)c2ccccc2)[C@]2(O)C[C@H](OC(=O)[C@H](O)[C@@H](NC(=O)OC(C)(C)C)c3ccccc3)C(C)=C1C2(C)C` [Cabazitaxel]: the inhibition at 110 µM under setting [1] was found to be 3% and the inhibition at 110 µM under setting [2] is 9%.
The corresponding values for `C[C@H]1CO[C@@H]2Cn3cc(C(=O)NCc4ccc(F)cc4F)c(=O)c(O)c3C(=O)N12` [Cabotegravir] are 19% and 7%.
For `O=C(O)c1cn(C2CC2)c2cc(N3CCC(O)(COc4ccc(N5C[C@H](CO)OC5=O)cc4F)CC3)c(F)cc2c1=O` [Cadazolid], the inhibition at 110 µM by setting is: under setting [1], 5%; under setting [2], 31%.
With `O=C(O)/C=C/c1ccc(O)c(O)c1` [Caffeic acid], the inhibition at 110 µM runs as follows: under setting [1], 20%; under setting [2], 13%.
As for `COc1ccc(-c2coc3cc(O)ccc3c2=O)cc1O` [Calycosin], the inhibition at 110 µM under setting [3] stood at 16% and the inhibition at 110 µM under setting [4] came to 1%.
For the molecule `C[C@@H]1O[C@@H](OC[C@H]2O[C@@H](Oc3c(-c4ccc(O)cc4)oc4cc(O)cc(O)c4c3=O)[C@H](O[C@@H]3O[C@H](CO)[C@H](O)[C@H](O)[C@H]3O)[C@@H](O)[C@@H]2O)[C@H](O)[C@H](O)[C@H]1O` [Camelliaside A], the inhibition at 110 µM reads like this: under setting [1], 9%; under setting [2], 10%.
The corresponding values for `O=c1ccc2nccc3c4ccccc4n1c23` [Canthin‐6‐one] are 0% and 15%.
As to `COc1cc(CNC(=O)CCCC/C=C/C(C)C)ccc1O` [Capsaicin], the inhibition at 110 µM is 0% under setting [3] and 0% under setting [4].
With `COC(=O)N/N=C/c1c[n+]([O-])c2ccccc2[n+]1[O-]` [Carbadox], the inhibition at 110 µM under setting [1] amounted to 4% and the inhibition at 110 µM under setting [2] was determined as 0%.
Turning to `COC(=O)Nc1nc2ccccc2[nH]1` [Carbendazim], the inhibition at 110 µM by setting is: under setting [1], 18%; under setting [2], 7%.
The corresponding values for `O[C@H]1[C@H](O)[C@@H](O)CN2CC[C@H](O)[C@H]12` [Castanospermine] are 0% and 0%.
`COc1ccc(-c2oc3cc(OC)c(OC)c(O)c3c(=O)c2OC)cc1O` [Casticin]: the inhibition at 110 µM runs as follows: under setting [3], 9%; under setting [4], 0%.
For the molecule `OC[C@H]1O[C@@H](O[C@@H]2OC=C[C@H]3[C@H](O)[C@@H]4O[C@]4(CO)[C@@H]23)[C@H](O)[C@@H](O)[C@@H]1O` [Catalpol], the inhibition at 110 µM by setting is: under setting [1], 0%; under setting [2], 16%.
In the case of `C[C@@H]1O[C@@H](O[C@H]2[C@H](O)[C@@H](O)[C@H](OC[C@H]3O[C@@H](OC(=O)[C@]45CCC(C)(C)C[C@H]4C4=CC[C@@H]6[C@@]7(C)CC[C@H](O[C@@H]8OC[C@H](O)[C@H](O)[C@H]8O)[C@@](C)(CO)[C@@H]7CC[C@@]6(C)[C@]4(C)CC5)[C@H](O)[C@@H](O)[C@@H]3O)O[C@@H]2CO)[C@H](O)[C@H](O)[C@H]1O` [Cauloside D], the inhibition at 110 µM was found to be 6% under setting [1] and 17% under setting [2].
With `C[C@@H]1CC[C@H]2C(C)(C)[C@H]3C[C@@]12CC[C@@]3(C)O` [Cedrol], the inhibition at 110 µM under setting [1] was 8% and the inhibition at 110 µM under setting [2] stood at 13%.
On to `C=CC1=C(C(=O)O)N2C(=O)[C@@H](NC(=O)/C(=N\O)c3csc(N)n3)[C@H]2SC1` [Cefdinir], for which the inhibition at 110 µM worked out at 0% under setting [1] and 0% under setting [2].
For the molecule `C=CC1=C(C(=O)O)N2C(=O)[C@@H](NC(=O)/C(=N\OCC(=O)O)c3csc(N)n3)[C@H]2SC1` [Cefixime], the inhibition at 110 µM is, setting by setting: under setting [1], 38%; under setting [2], 12%.
In the case of `CCN1CCN(C(=O)N[C@@H](C(=O)N[C@@H]2C(=O)N3C(C(=O)O)=C(CSc4nnnn4C)CS[C@H]23)c2ccc(O)cc2)C(=O)C1=O` [Cefoperazone], the inhibition at 110 µM was found to be 22% under setting [1] and 7% under setting [2].
The corresponding values for `CC1=C(C(=O)O)N2C(=O)[C@@H](NC(=O)[C@H](N)C3=CCC=CC3)[C@H]2SC1` [Cefradine] are 37% and 11%.
`CC(C)(O/N=C(\C(=O)N[C@@H]1C(=O)N2C(C(=O)[O-])=C(C[n+]3ccccc3)CS[C@H]12)c1csc(N)n1)C(=O)O` [Ceftazidime]: the inhibition at 110 µM reads like this: under setting [1], 37%; under setting [2], 28%.
For `CC1=C(O)C(=O)C=C2C1=CC=C1[C@@]2(C)CC[C@@]2(C)[C@@H]3C[C@](C)(C(=O)O)CC[C@]3(C)CC[C@]12C` [Celastrol], in that order: 0% and 13%.
As for `CC1=C(C(=O)O)N2C(=O)[C@@H](NC(=O)[C@H](N)c3ccccc3)[C@H]2SC1` [Cephalexin], the inhibition at 110 µM is 21% under setting [1] and 13% under setting [2].
